In ChEMBL document CHEMBL1201862, “PubChem BioAssay data set” (2004):
Activity calls are given as the source filed them.

Tests used:
[1] = biological target: T1, Insulin-degrading enzyme (Homo sapiens, UniProt P14735); assay: cellular IDE activation of Abeta substrate cleavage – fluorescence polarization, HEK cells, dose response (AID 588439); type: functional, cell-based
T1 sequence (P14735 whole entry): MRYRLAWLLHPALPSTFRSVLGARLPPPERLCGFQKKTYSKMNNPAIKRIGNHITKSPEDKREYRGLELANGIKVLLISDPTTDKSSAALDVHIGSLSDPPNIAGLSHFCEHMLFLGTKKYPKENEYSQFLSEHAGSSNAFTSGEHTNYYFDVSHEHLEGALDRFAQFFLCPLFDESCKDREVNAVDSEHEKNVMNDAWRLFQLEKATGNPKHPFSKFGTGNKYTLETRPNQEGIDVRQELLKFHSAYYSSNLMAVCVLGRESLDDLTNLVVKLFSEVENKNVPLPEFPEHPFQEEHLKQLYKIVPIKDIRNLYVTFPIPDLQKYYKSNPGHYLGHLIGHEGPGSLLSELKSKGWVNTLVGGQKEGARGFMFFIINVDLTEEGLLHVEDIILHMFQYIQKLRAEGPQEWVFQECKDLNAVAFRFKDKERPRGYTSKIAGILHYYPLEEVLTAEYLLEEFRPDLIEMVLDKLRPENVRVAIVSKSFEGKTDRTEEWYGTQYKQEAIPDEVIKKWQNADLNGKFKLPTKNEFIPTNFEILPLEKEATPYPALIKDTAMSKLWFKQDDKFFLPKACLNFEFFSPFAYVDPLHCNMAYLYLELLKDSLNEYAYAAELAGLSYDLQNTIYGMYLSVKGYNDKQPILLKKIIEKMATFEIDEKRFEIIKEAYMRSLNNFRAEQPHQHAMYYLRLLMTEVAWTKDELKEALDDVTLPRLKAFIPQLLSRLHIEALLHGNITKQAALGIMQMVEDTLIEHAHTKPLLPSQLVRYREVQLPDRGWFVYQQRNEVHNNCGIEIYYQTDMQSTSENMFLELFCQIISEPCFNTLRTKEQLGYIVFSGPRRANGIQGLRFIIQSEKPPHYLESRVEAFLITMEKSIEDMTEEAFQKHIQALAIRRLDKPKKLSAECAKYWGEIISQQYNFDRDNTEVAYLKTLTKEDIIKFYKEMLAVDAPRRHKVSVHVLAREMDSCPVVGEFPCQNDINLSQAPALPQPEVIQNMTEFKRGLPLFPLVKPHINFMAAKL

[2] = biological target: T1, Insulin-degrading enzyme; assay: recombinant IDE activation, cell-free – biochemical, fluorescence polarization, counter-screen for IDE activator project, dose response (AID 588681)
[3] = test system: HEK293; assay: membrane integrity loss in HEK cells – cell-based, fluorescence, cytotoxicity control for IDE activator project, dose response (AID 588440); type: functional; conditions: Homo sapiens;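 further: cytotoxicity by LDH release measuring loss of membrane integrity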
[4] = test system: HEK293; assay: optical interference in Abeta FP readout, dose response, artefact control for IDE activator project, biochemical, fluorescence polarization (AID 588442); type: functional, cell-based; conditions: Homo sapiens
[5] = biological target: Potassium voltage-gated channel subfamily KQT member 2 (Rattus norvegicus, UniProt O88943); assay: blockers of KCNQ2 channel current – cell-based, automated electrophysiology, set II, rat KCNQ2, dose response (AID 588637); type: functional
[6] = reduction of Shn3 3'UTR-driven luciferase in osteoblasts – cell-based, Clone20 osteoblasts, firefly luciferase, cherry-picked, dose response (AID 624132); type: functional;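 further: firefly luciferase luminescence from reporter carrying the Shn3 3'UTR in osteoblasts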
[7] = non-specific 3'UTR reporter inhibition in Clone20-Shn3RL – cell-based, Renilla luciferase, cherry-picked, counter-screen for Shn3 inhibitor project, dose response (AID 624133); type: functional
[8] = biological target: Paired box protein Pax-8 (Homo sapiens, UniProt Q06710); assay: PAX8 transcriptional activity inhibition in RMG-I – RMG-I cells, luciferase, cherry-pick, dose response (AID 687027); type: functional, cell-based;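 further: luciferase reporter driven by Pax8 target thyroperoxidase promoter measured by SteadyGlo luminescence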
[9] = loss of viability in HepG2 cells – cell-based, CellTiter-Glo, cherry-picked, cytotoxicity control for Shn3 inhibitor project, dose response (AID 624134); type: functional
[10] = Fluorescence-based cell-based high throughput dose response assay for inhibitors of the interaction of nucleotide-binding oligomerization domain containing 2 (NOD2) and the receptor-interacting serine-threonine kinase 2 (RIPK2).; type: functional; conditions: Homo sapiens
[11] = biological target: T2, Neuropeptides B/W receptor type 1 (Homo sapiens, UniProt P48145); assay: human NPBW1 receptor blockade, IC50 – cell-based, fluorescence, dose response, set 6, late-stage follow-up (AID 588583); type: functional
T2 sequence (P48145 whole entry): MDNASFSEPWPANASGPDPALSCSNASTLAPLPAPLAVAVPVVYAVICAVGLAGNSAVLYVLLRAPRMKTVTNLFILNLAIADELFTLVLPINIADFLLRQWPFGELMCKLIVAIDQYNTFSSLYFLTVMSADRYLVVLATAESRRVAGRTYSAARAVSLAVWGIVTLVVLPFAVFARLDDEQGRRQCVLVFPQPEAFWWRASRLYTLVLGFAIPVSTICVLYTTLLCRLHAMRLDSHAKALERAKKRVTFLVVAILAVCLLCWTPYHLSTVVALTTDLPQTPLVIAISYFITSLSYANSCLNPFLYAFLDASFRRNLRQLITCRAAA

[12] = biological target: Melanin-concentrating hormone receptor 1 (Homo sapiens, UniProt Q99705); assay: Late-stage fluorescence-based counterscreen for antagonists of the G-protein coupled receptor 7 (GPR7): cell-based dose response assay to identify antagonists of the melanin-concentrating hormone receptor 1 (MCHR1) Set 6.; type: functional
[13] = biological target: T3, DNA repair and recombination protein RAD54-like (Homo sapiens, UniProt Q92698); assay: RAD54 Holliday junction migration blockers – biochemical, fluorescence, cherry-picked samples, dose series, confirmation (AID 651657); type: functional
T3 sequence (Q92698 whole entry): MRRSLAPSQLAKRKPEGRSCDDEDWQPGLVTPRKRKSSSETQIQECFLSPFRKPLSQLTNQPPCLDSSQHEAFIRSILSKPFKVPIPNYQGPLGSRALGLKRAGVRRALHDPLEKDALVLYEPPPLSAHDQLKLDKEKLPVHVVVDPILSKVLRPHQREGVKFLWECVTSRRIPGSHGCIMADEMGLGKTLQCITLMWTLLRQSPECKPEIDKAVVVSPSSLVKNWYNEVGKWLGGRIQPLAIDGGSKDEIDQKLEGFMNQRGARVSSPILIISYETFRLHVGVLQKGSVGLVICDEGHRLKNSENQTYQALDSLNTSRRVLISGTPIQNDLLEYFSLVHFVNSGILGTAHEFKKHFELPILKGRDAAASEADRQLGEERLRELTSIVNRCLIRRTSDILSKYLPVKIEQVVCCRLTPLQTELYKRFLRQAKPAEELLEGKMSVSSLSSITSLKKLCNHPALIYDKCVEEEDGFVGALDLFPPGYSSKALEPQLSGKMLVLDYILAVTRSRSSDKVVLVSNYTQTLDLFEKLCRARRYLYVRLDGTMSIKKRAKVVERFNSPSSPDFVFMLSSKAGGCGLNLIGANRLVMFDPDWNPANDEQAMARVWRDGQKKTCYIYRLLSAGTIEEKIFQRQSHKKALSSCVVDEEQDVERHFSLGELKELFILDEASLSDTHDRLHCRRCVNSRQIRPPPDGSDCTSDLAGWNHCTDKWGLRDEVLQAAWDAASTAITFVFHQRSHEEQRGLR

[14] = cytotoxicity toward MDA-MB-231 breast cancer cells – cell-based, CellTiter-Glo luminescence, cherry-pick, cytotoxicity control for RAD54 inhibitor project, dose response (AID 651692); type: functional
[15] = biological target: T4, DNA repair protein RAD52 homolog (Homo sapiens, UniProt P43351); type: functional, biochemical
T4 sequence (P43351 whole entry): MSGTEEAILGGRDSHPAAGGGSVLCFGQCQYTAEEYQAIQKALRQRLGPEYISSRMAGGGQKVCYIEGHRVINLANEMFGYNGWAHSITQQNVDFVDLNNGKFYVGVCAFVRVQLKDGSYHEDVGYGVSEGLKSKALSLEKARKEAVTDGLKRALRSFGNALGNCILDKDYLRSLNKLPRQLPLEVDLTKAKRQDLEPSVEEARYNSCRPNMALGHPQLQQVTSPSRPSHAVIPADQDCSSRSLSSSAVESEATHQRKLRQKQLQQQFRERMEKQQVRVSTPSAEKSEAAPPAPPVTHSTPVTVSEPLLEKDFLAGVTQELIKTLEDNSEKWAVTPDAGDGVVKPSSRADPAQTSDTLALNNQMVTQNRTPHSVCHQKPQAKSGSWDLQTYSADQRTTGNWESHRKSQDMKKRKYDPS

[16] = test system: INS1; assay: INS-1E survival protection against cytokine death – cell-based, luminescence, retest, dose response (AID 449756); type: functional; conditions: Rattus norvegicus;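 further: cell death triggered by IL-1 beta plus TNF-alpha plus IFN-gamma mixture; protective hits raise ATP signal compared with cytokine alone wells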
[17] = Luminescence-based counterscreen assay for KLF5 inhibitors: dose response cell-based high throughput screening assay to identify cytotoxic compounds using the IEC-6 intestinal epithelial cell line. [Related pubchem assays: 1700 (Primary screen.), 1834 (Confirmation screen.), 1858 (Summary AID.), 1905 (Counterscreen.)]; type: functional
[18] = Luminescence Cell-Based Dose Retest to Confirm Inhibitors of Cancer Stem Cells. [Related pubchem assays (depositor defined):AID2717, AID2721]; type: functional; conditions: Homo sapiens
[19] = NIH3T3 cell viability loss, ATP content – CellTiter-Glo luminescence, cherry-pick, set 2, cytotoxicity control for HSP40 inhibitor project, dose response (AID 624265); type: functional
[20] = NIH-3T3 fibroblast cytotoxicity, dose response, cytotoxicity control, cell-based, fluorescence, Alamar Blue, secondary assay (AID 2327); type: functional;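 further: NIH-3T3 mouse fibroblasts cultured with fluconazole at 8 µg/mL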
[21] = fluconazole-exposed Candida albicans growth modulators – fluorescence, retest, confirmation (AID 2467); type: functional, cell-based
[22] = biological target: T5, Interleukin-8 (Homo sapiens, UniProt P10145); assay: Dose Response confirmation of uHTS small molecule hits for cystic fibrosis induced NFkb Inhibitors in a PAF-induced IL8 counterscreen.; type: functional; conditions: read-out: IC50_Mean
T5 sequence (P10145 whole entry): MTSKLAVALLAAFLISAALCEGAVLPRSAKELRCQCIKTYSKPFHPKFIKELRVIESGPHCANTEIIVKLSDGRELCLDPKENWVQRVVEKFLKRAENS

[23] = biological target: T5, Interleukin-8; assay: Dose Response confirmation of uHTS small molecule hits for cystic fibrosis induced NFkb Inhibitors in a TNFa-induced IL8 counterscreen.; type: functional; conditions: read-out: IC50_Mean
[24] = biological target: Melanocortin receptor 4 (Homo sapiens, UniProt P32245); type: functional, cell-based;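 further: Cell-based assay with luminescence read-out, confirmatory dose-response testing for agonist activity of biased ligands at MC4R; human U2OS cells with tagged receptor and beta-arrestin; potency of agonists that increase receptor coupling to beta-arrestin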
[25] = biological target: T6, Leucine aminopeptidase (Plasmodium falciparum 3D7, UniProt Q8IL11); assay: P. falciparum M17LAP inhibitors, primary screen, biochemical, fluorogenic H-Leu-NHMec substrate, 1536-well (AID 1619); type: functional
T6 sequence (Q8IL11 whole entry): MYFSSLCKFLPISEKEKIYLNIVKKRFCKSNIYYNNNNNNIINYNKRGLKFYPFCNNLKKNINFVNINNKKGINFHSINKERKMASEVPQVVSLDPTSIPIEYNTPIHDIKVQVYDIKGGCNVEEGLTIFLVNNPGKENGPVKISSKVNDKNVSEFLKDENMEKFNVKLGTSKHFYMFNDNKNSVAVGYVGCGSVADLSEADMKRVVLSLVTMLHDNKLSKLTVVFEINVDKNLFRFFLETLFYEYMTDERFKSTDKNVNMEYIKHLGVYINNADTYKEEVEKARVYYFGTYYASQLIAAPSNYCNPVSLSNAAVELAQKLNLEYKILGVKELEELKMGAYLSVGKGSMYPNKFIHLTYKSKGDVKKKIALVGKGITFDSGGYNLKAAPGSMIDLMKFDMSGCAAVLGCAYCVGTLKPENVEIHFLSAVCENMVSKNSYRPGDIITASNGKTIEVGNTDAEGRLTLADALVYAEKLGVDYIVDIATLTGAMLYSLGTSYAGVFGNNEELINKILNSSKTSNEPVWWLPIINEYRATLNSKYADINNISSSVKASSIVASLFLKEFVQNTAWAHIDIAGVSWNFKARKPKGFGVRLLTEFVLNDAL

Chain of Melanin-concentrating hormone receptor 1 (Q99705 whole entry): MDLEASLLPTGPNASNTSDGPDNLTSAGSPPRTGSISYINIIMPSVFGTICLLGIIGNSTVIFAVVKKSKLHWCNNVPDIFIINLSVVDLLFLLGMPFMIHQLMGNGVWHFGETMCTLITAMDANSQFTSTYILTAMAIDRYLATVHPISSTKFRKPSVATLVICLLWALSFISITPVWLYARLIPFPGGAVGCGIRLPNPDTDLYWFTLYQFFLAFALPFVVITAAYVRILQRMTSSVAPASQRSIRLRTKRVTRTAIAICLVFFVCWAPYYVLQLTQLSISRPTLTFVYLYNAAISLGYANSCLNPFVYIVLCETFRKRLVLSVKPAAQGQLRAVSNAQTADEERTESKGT
Chain of Potassium voltage-gated channel subfamily KQT member 2 (O88943 whole entry): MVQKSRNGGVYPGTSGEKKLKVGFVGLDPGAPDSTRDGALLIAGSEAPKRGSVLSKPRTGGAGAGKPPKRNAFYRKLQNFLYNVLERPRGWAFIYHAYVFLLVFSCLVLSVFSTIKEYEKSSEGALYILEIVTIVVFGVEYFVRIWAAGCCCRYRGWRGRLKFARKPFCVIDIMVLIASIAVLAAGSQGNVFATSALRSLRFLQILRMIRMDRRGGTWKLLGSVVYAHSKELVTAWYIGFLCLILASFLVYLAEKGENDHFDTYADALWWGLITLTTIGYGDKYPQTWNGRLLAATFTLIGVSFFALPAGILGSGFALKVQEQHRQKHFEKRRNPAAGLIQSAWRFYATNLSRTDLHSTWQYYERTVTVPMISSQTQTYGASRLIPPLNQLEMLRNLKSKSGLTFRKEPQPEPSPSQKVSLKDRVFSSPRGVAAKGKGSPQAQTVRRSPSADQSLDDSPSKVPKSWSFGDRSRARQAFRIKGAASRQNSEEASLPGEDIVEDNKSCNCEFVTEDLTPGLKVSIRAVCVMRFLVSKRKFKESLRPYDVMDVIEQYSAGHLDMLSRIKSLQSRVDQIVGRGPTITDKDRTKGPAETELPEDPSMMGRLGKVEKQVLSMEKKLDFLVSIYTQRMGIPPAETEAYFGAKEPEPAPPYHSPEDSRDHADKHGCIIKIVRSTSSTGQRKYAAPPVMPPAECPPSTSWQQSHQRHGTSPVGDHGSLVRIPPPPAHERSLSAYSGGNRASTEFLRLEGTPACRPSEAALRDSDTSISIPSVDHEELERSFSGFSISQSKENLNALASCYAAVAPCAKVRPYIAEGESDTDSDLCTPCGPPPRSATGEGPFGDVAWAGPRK
Chain of Melanocortin receptor 4 (P32245 whole entry): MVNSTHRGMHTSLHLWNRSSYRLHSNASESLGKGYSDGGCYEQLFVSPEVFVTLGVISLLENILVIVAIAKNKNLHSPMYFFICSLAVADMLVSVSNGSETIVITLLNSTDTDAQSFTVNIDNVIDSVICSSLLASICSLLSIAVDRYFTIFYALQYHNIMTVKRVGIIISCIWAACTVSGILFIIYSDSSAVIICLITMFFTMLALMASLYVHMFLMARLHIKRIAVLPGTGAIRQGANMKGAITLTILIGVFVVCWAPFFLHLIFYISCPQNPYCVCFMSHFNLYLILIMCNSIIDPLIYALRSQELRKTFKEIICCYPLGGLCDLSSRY
Chain of Paired box protein Pax-8 (Q06710 whole entry): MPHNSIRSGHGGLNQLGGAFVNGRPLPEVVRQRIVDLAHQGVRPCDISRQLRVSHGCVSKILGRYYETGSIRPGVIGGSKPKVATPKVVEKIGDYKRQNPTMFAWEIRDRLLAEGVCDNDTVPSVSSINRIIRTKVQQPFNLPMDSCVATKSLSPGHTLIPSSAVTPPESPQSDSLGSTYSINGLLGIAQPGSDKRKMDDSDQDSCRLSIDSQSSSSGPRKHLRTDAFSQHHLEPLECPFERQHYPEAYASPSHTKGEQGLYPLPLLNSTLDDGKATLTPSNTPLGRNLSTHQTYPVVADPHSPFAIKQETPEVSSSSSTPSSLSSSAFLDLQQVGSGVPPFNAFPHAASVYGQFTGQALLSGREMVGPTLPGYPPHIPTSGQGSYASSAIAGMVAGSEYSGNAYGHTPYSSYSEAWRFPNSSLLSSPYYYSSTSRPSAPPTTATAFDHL

With `CC(=O)Nc1ccc(N2S(=O)(=O)c3ccccc3S2(=O)=O)cc1` the EC50 [1] was > 54.7 µM (inactive), the EC50 [2] was > 54.7 µM (inactive) and the IC50 [3] was > 89.2 µM (inactive). For the same compound, the EC50 [4] was > 54.7 µM (inactive).

In the case of `COc1cc(-c2cc(C(=O)N(C)Cc3ccccc3)c3ccccc3n2)cc(OC)c1OC`, the IC50 [5] is reported as 0.634 µM (active).

For `C=C1C(=O)[C@]23C[C@H]1CC[C@H]2[C@]1(C)[C@@H](OC(C)=O)CC[C@@](C)(C(=O)OC)[C@H]1C[C@@H]3OC(C)=O`, the AC50 [6] was 5.99 µM (active), the AC50 [7] was 5.01 µM (active) and the AC50 [8] was 3.62 µM (active). The AC50 [9] was 13.6 µM (active) and the IC50 [10] was 3.1 µM (active).

For `COc1ccc(Oc2c(Cl)cnn(Cc3cc(-c4ccccc4)n(-c4ccccc4)n3)c2=O)cc1`, the IC50 [11] was > 20 µM (inactive) and the IC50 [12] was > 20 µM (inactive).

For `CC(=O)Nc1cc(-c2cccc(C(=O)NCCN(C)C)c2)cn2c(-c3ccc(C(C)=O)cc3)cnc12`, the AC50 [13] was 16.1 µM (active), the AC50 [14] was 31.8 µM (active) and the AC50 [15] was 2.12 µM (active).

For `Cc1cc(-c2ccccc2)n(-c2cc(N/N=C/c3ccccc3O)ncn2)n1`, the AC50 [16] was 4.06 µM (active), the IC50 [17] was 9.65 µM (active) and the AC50 [18] was 0.703 µM (active). For the same compound, the AbsAC35_uM [19] was 52.65 µM.

For `O=C(Oc1cc2oc(=O)cc(-c3ccccc3)c2cc1Cl)C1CCCCC1`, the EC50 [20] was > 150 µM (inactive), the EC50 [21] was 2.32 µM (active) and the IC50 [22] was 9.8 µM (active). For the same compound, the IC50 [23] was > 79 µM (inactive).

For `Cc1c(C(C#N)c2ccccc2)cnn(Cc2cccc3ccccc23)c1=O` (configuration not stated), the IC50 [11] was 3.99 µM (active) and the IC50 [12] was 3.99 µM (active).

In the case of `CC(C)c1ccc(NC(=O)CSc2ncccc2C(=O)Oc2cccc([N+](=O)[O-])c2)cc1`, the EC50 [24] is reported as > 89.2 µM (inactive) and the IC50 [25] is reported as 8.47 µM (active).
